In ChEMBL document CHEMBL1201862, “PubChem BioAssay data set” (2004):
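Results reflect a 48-hour exposure of cells in 96-well plates to compound at five concentrations. At the GI50, growth is halved.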 Activity calls are given as the source filed them. Rule as the data show it: active = GI50 up to about 1.1 µM and inactive = higher.

Tests used:
Test in all cases: NCI tumour cell line growth inhibition, 48 h
[1] = tested on: SNB-19
[2] = tested on: HL-60
[3] = tested on: K562
[4] = tested on: SNB-75
[5] = tested on: LOX IMVI
[6] = tested on: MOLT-4
[7] = tested on: SK-MEL-28
[8] = tested on: EKVX
[9] = tested on: HCT-116
[10] = tested on: CCRF-CEM
[11] = tested on: IGROV-1
[12] = tested on: UACC-257
[13] = tested on: SK-OV-3
[14] = tested on: SW-620
[15] = tested on: OVCAR-3
[16] = tested on: NCI-H460
[17] = tested on: HOP-92
[18] = tested on: OVCAR-4
[19] = tested on: SK-MEL-5
[20] = tested on: NCI-H23

SMILES	GI50 [1]	GI50 [2]	GI50 [3]	GI50 [4]	GI50 [5]	GI50 [6]	GI50 [7]	GI50 [8]	GI50 [9]	GI50 [10]	GI50 [11]	GI50 [12]	GI50 [13]	GI50 [14]	GI50 [15]	GI50 [16]	GI50 [17]	GI50 [18]	GI50 [19]	GI50 [20]
CN1CN(C(=O)N2CN(C)C(=O)N(C)C2)CN(C)C1=O	> 100 µM (inactive)	> 100 µM (inactive)	> 100 µM (inactive)	> 100 µM (inactive)	> 100 µM (inactive)	> 100 µM (inactive)	> 100 µM (inactive)	> 100 µM (inactive)	> 100 µM (inactive)	> 100 µM (inactive)	> 100 µM (inactive)	> 100 µM (inactive)	> 100 µM (inactive)	> 100 µM (inactive)	> 100 µM (inactive)					
CC(=O)OC1CC2(O)C(CCC3(C)C(c4ccc(=O)oc4)CCC32O)C2(C)CCC(O)C=C12 (stereo not given)	0.0466 µM (active)	0.00455 µM (active)	0.0375 µM (active)	0.0317 µM (active)	0.0191 µM (active)	0.00182 µM (active)	0.0375 µM (active)	0.0139 µM (active)	0.0375 µM (active)		0.0195 µM (active)	0.0242 µM (active)	0.0336 µM (active)	0.0375 µM (active)	0.00469 µM (active)	0.00454 µM (active)	0.0604 µM (active)	0.0206 µM (active)	0.00439 µM (active)	0.00246 µM (active)
COc1ccc(C(=O)Cc2cc(OC)ccc2OC)cc1	> 100 µM (inactive)	> 100 µM (inactive)	> 100 µM (inactive)	29 µM (inactive)	> 100 µM (inactive)	> 100 µM (inactive)		> 100 µM (inactive)	> 100 µM (inactive)	> 100 µM (inactive)	> 100 µM (inactive)	> 100 µM (inactive)	> 100 µM (inactive)	> 100 µM (inactive)	> 100 µM (inactive)	> 100 µM (inactive)		> 100 µM (inactive)	> 100 µM (inactive)	> 100 µM (inactive)
O=C(O)C12CC3CC(C1)C2C=C3P(=O)(O)O (stereo not given)		> 100 µM (inactive)	> 100 µM (inactive)	> 100 µM (inactive)	> 100 µM (inactive)	> 100 µM (inactive)	> 100 µM (inactive)	> 100 µM (inactive)	> 100 µM (inactive)	> 100 µM (inactive)	> 100 µM (inactive)	> 100 µM (inactive)	> 100 µM (inactive)	> 100 µM (inactive)	> 100 µM (inactive)	> 100 µM (inactive)	> 100 µM (inactive)	> 100 µM (inactive)		> 100 µM (inactive)
